{
  "source": "patent US20230110065A1",
  "about": "“COMBINATION OF ANETHOLE TRITHIONE OR ITS DERIVATIVE, 4-OH-ANETHOLE TRITHIONE, WITH DOXYCYCLINE OR MINOCYCLINE FOR THE USE THEREOF IN THE TREATMENT OF PARKINSON'S DISEASE” (priority 2020, published 2023)",
  "key": {"Parkinson's disease": {"tested_on": "Parkinson's disease", "assay": "Clinical case: person with Parkinson's disease", "assay_type": "in vivo, human", "experimental": "This therapeutic solution was tested on a person with Parkinson’s disease. A history of events over 3 years (current follow-up) is presented below:\nSymptoms: At the very beginning of 2018, the first manifestations of Parkinson’s appeared: tremors in the left hand, slowing of walking pace, chaotic descent of stairs, tilting of the torso forward accompanied by back pain in the form of muscle contractures, as well as the beginnings of various obvious non-motor disorders (withdrawal, indifference, difficult decision-making, loss of joy in life, depression, etc.), constipation, hyposmia. Initially, ATT was tested as monotherapy.\nTreatment: The problem then arose of deciding which dose to use. The patient was already taking ATT to treat a problem of benign prostatic hypertrophy (cf. patent WO2019/O73173) and used it with the greatest satisfaction at a dose of 3 cp to 25 mg, given in the morning and evening, but the dose turned out to be insufficient for treating Parkinson’s disease. A blood-brain barrier crossing problem was suspected and the decision was taken to increase this dose by 4 times by dividing it into 4 daily doses, i.e., 4 x 6 tablets/day (equivalent to 600 mg/day), so as to reduce concentration fluctuations as much as possible (the plasma half-life of ATT in humans is approximately 3 hrs).\nSymptoms: In April-May 2019, unusual fatigue manifested when the patient performed strenuous tasks.\nTreatment: Faced with worsening fatigue, the decision was taken, on Dec. 19, 2019, to add doxycycline at a dose of 50 mg every 6 hrs, which dose was intended to ensure stable concentrations in the LCR of approximately 0.9 µM/L (Dotevall, 1989; Karlsson, 1996), i.e., around 3 times what Gonzalez-Lizzaraga (2017) recommends."}, "[1]": {"conditions": "cited from earlier work"}, "[2]": {"conditions": "in humans; cited from earlier work"}, "[3]": {"tested_on": "dopaminergic neurons in midbrain cultures", "assay": "Survival of dopaminergic (TH+) neurons in midbrain cultures under low-noise, spontaneous oxidative stress", "assay_type": "cell-based, mouse", "conditions": "7 days, FIG. 8", "experimental": "Midbrain cultures and immunodetection of tyrosine hydroxylase (TH): Mouse midbrain cultures were produced based on a protocol initially described by Troadec and colleagues (2001) and subsequently taken up by Rousseau and colleagues (2013). The cultures were generated from Swiss mouse embryos (Janvier LABS, Le Genest-St Isles) taken from the pregnant mother on day 13.5 of gestation. The cells dissociated from the midbrain were cultured in 48-well plates containing 500 µl of DMEM/HamF12 medium, supplemented with 10% fetal bovine serum (Biowest LLC, Les Ulis, France). Approximately 80-100 10^3 cells were added initially to each culture well. After one hour, the initial medium was replaced with the DMEM/HamF12 medium supplemented with 20 µg/mL of insulin. The culture medium (350 µl) and the treatments were renewed on days 1 and 3 in vitro. The cultures were maintained for a total of 7 days before binding and analysis. […] TH^+ neurons were counted according to a protocol described previously (Rousseau et al, 2013). The counts are expressed as % of the values obtained in the control cultures treated with apotransferrin.\nStatistical analysis: The experimental data correspond to mean ± SEM values. […] The data were analyzed with the GraphPad Prism 8.3.1 software or Sigmaplot 12.5 software using One-Way ANOVA, followed by a post-hoc Student Newman Keuls test."}, "a-synuclein [4]": {"biological_target": "T1, a-synuclein (Homo sapiens, UniProt P37840)", "T1 construct": "made in house; host or cells: Escherichia coli (plasmid pT7-7)", "assay": "Amyloid aggregation of a-synuclein by orbital shaking, Thioflavin-T test", "assay_type": "biochemical", "conditions": "ATX 1, 10 or 100 µM, 600 rpm, 37° C., 96 h; FIG. 5B", "experimental": "Preparation of a-synuclein: Human recombinant a-synuclein was produced from a strain of Escherichia coli carrying a plasmid pT7-7 containing the coding sequence of the protein (Kaylor et al, J Mol Biol, 2005; Gonzalez-Lizarraga et al, Sci Rep, 2020). After a purification step, the purity of the protein was evaluated by polyacrylamide gel electrophoresis under denaturing conditions (SDS-PAGE). The stock solution of a-synuclein was prepared in a buffer containing 20 mM of HEPES and 150 mM of NaCl at pH 7.4. Before initiating the aggregation protocol, the protein was centrifuged at 12000 g for 30 minutes in order to eliminate the micro-aggregates. The protein concentration was measured at 280 nm with a Nanodrop 8000 spectrophotometer (Gonzalez-Lizarraga et al, Sci Rep, 2020).\nAggregation of a-synuclein […]: The aggregation protocol was adapted from previous work (Kaylor et al, J Mol Biol, 2005; Gonzalez-Lizarraga et al, Sci Rep, 2020). Briefly, the aggregation of a-synuclein was obtained by orbital shaking (600 rpm; Thermomixer Comfort; Eppendorf), at 37° C. for 96 h, of the recombinant protein (70 µM) solubilized in 20 mM of HEPES and 150 mM of NaCl, pH 7.4. Dimethylformamide (DMF) was used to dilute ATX in this experimental protocol. The formation of aggregated structures was monitored by means of the Thioflavin-T (ThT) test (LeVine et al, Meth Enzymol, 1999)."}, "a-synuclein [5]": {"biological_target": "T1, a-synuclein", "assay": "Transmission electron microscopy of a-synuclein aggregates", "assay_type": "biochemical", "conditions": "ATX 10 µM", "experimental": "Transmission electron microscopy: The a-synuclein samples, shaken in the optional presence of the treatments of interest, were characterized by transmission electron microscopy. Aliquots of 50 µl of each solution were used for this analysis. The sample preparation protocol is described in detail by Gonzalez-Lizarraga and colleagues (2020). Images were obtained with a transmission electron microscope, Philips EM 301."}, "[6]": {"tested_on": "microglia in culture activated by LPS (TLR4 agonist)", "assay": "TNF-a release (ELISA) in microglia in culture activated by LPS", "assay_type": "cell-based, mouse", "description": "Purification of microglia: The cultures were produced from a cell suspension obtained by mechanical dissociation of the brains of newborn mice, C57BL/6J (Janvier LABS), according to a protocol described by Sepulveda-Diaz and colleagues (Glia, 2016) and modified subsequently by dos-Santos-Pereira and colleagues (Glia, 2020). The protocol used follows the directives of the Council of the European Union (2010/63/EU). It was approved by the Ethics Committee for Animal Experimentation, Charles Darwin no. 5. Corning culture flasks of 75 cm^2 precoated with a polycation, polyethyleneimine (PEI; 1 mg/mL) diluted in a borate buffer pH 8.3, were used so as to obtain spontaneous isolation of the microglial cells after 15-20 days of culture, this isolation taking place at the expense of other cell populations, in particular, astrocytes. In order to maintain the flask cultures, Dulbecco’s modified Eagle’s medium (DMEM) supplemented with 10% fetal bovine serum (FBS, Biowest LLC) and 1% penicillin/streptomycin cocktail was used (see experimental details described in the publication of Sepulveda-Diaz and colleagues). After the microglia purification step, the microglia adhering in the culture flasks were trypsinized to produce subcultures in 48-well multi-well Nunc plates. These cultures were maintained in the presence of DMEM, supplemented with 20 mM HEPES and 1% FBS. […]\n(§1) Assessment of TNF-a levels: The culture medium of the microglia, recovered 24 hrs after the stimulation by the inflammogens was initiated, was then frozen at -20° C. until the analysis. TNF-a was detected with an ELISA kit from ThermoFisher (BMS607-3TWO), following the supplier’s instructions (dos-Santos-Pereira et al, Glia, 2020). The absorbance of each sample was measured at 450 nm with a SpectraMax i3X.\n(§2) Statistical analysis: The experimental data were analyzed with the GraphPad Prism 8.3.1 software by applying a One-Way ANOVA test, followed by a post-hoc Student Newman Keuls test."}, "[7]": {"tested_on": "microglia in culture activated by PAM3CSK4 (TLR2 agonist)", "assay": "TNF-a release (ELISA) in microglia in culture activated by PAM3CSK4", "assay_type": "cell-based, mouse", "conditions": "PAM3CSK4 1 µg/mL, 24 hrs; FIG. 4", "description": "Purification of microglia: The cultures were produced from a cell suspension obtained by mechanical dissociation of the brains of newborn mice, C57BL/6J (Janvier LABS), according to a protocol described by Sepulveda-Diaz and colleagues (Glia, 2016) and modified subsequently by dos-Santos-Pereira and colleagues (Glia, 2020). The protocol used follows the directives of the Council of the European Union (2010/63/EU). It was approved by the Ethics Committee for Animal Experimentation, Charles Darwin no. 5. […]\nas §1, §2"}, "[8]": {"conditions": "doxycycline 50 mg every 6 hrs; intended, from Dotevall, 1989; Karlsson, 1996; cited from earlier work"}},
  "note": "“Also recorded” adds a separate entry of the source.",
  "data": [
    {"smiles": "COc1ccc(-c2cc(=S)ss2)cc1", "note": "[ATT, anethole trithione]", "values": [
      {"measurement": "Duration of satisfactory treatment", "setting": "Parkinson's disease; ATT 150 mg, 4 times a day", "result": 13, "unit": "months"},
      {"measurement": "Duration of failure with the onset of new symptoms", "setting": "Parkinson's disease; ATT 150 mg, 4 times a day, after the satisfactory period", "result": 7, "unit": "months"},
      {"measurement": "Side effects", "setting": "Parkinson's disease; two years of treatment", "result": "no significant side effects have been noted during these two years of treatment, apart from intestinal meteorism"},
      {"measurement": "Metabolization of ATT", "setting": "[1]; He 2011, Li TM 2007, Li WY 2008", "result": "metabolizes almost immediately and completely into ATX via O-demethylation"},
      {"measurement": "ATT found in the patient's urine", "setting": "[1]; over a 24-hour period", "result": "almost no ATT can be found"},
      {"measurement": "Plasma half-life", "setting": "[2]", "result": "approximately 3 hrs"},
      {"measurement": "Protection as % of that of APO (apotransferrin)", "setting": "[3]; 0.75 µM", "result": 0.6, "unit": "%"}
    ]},
    {"smiles": "Oc1ccc(-c2cc(=S)ss2)cc1", "note": "[ATX, 4-hydroxy-anethole trithione]", "values": [
      {"measurement": "Inhibition of a-synuclein aggregation (ThT fluorescence), result in words", "setting": "a-synuclein [4]", "result": "effective, even at a low concentration; also recorded: effectively and concentration-dependently inhibiting the aggregation"},
      {"measurement": "Amyloid aggregation of a-synuclein seen by TEM", "setting": "a-synuclein [5]", "result": "effectively reduces the amyloid aggregation of a-synuclein"},
      {"measurement": "Release of TNF-a (inflammation marker), result in words", "setting": "[6]; LPS 10 ng/mL, 24 hrs, FIG. 3", "result": "capable of inhibiting the release of TNF-a"},
      {"measurement": "Release of TNF-a (inflammation marker), result in words", "setting": "[7]", "result": "capable of inhibiting the release of TNF-a"}
    ]},
    {"smiles": "C[C@H]1c2cccc(O)c2C(=O)C2=C(O)[C@]3(O)C(=O)C(C(N)=O)=C(O)[C@@H](N(C)C)[C@@H]3[C@@H](O)[C@@H]21", "note": "[DOX, doxycycline]", "values": [
      {"measurement": "inhibition at 50 µM", "setting": "[6]; Mus musculus, Microglia, LPS model, 50 µM of DOX, read-out: Inhibition of the release of TNFa", "result": 50, "unit": "%"},
      {"measurement": "inhibition at 100 µM", "setting": "[6]; Mus musculus, Microglia, LPS model, 100 µM of DOX, read-out: Inhibition of the release of TNFa", "result": "~70", "unit": "%"},
      {"measurement": "Stable concentrations in the LCR", "setting": "[8]", "result": "approximately 0.9 µM/L"},
      {"measurement": "Protective effect as % of that of apotransferrin", "setting": "[3]; DOX 7.5 µM", "result": 27, "unit": "%"}
    ]},
    {"smiles": "N[C@@H](Cc1ccc(O)c(O)c1)C(=O)O", "note": "[L-DOPA]", "values": [
      {"measurement": "Effect of introducing SINEMET (L-DOPA) on symptoms", "setting": "Parkinson's disease; July 2019, patient on ATT 600 mg/day", "result": "solved the problem of loss of balance but the hand tremors only slightly improved and fatigue persisted"}
    ]}
  ]
}
